In test [1] the target is T1, porcine pancreatic lipase (PL) (Sus scrofa, UniProt P00591).
T1 construct: purchased Sigma
T1 sequence (P00591 1-450): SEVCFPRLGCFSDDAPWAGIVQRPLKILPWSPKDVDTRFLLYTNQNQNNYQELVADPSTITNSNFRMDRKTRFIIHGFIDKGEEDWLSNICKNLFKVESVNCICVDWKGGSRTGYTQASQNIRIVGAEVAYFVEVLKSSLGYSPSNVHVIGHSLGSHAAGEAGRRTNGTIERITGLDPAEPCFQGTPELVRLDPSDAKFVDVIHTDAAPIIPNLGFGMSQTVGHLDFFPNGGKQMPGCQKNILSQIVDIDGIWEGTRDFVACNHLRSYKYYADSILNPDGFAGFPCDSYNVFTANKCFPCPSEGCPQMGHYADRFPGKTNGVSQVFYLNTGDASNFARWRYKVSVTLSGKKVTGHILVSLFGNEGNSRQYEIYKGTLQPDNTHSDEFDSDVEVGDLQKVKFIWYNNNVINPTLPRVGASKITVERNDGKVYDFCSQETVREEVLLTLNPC
Put plainly: Pancreatic lipase inhibition, Copper soap method. In kind it is biochemical. The settings on record: olive oil substrate, PBS pH 7.38, triplicate. The protocol: Copper soap method: The lipase activity assay involved a reaction medium (10 mL) containing 1 mg of olive oil, 3 mL 0.0667 mol/L, pH = 7.38 phosphate buffer saline (PBS), and 0.1 mL (C = 1 mg/mL) of lipase in the presence of 1 mL peptides with different concentrations. The peptides solution was prepared by dissolving in the working solution and was then added to reaction mixtures just before the reaction. Control lipase activity was determined without peptides. All samples were analyzed in triplicate. (1) Inhibition%=1−(Aa−A0)−(Ab−A0)/(Aa−A0)×100% where Ab refers to the absorbance value of the normal group; A0 is referred to the absorbance value of blank; and Aa is the absorbance values of the control group.

Test [2] concerns 3T3-L1 adipocytes. Nature of the test: Intracellular triacylglycerol in 3T3-L1 adipocytes. Type of test: cell-based. The settings on record: for decrease of intracellular triacylglycerol accumulation: 3T3-L1 cells. The protocol: (§1) First, 3T3-L1 cells were cultured in Dulbecco’s modified Eagle’s medium (DMEM) medium containing 10% (v/v) fatal bovine serum (FBS) and 1% antibiotics in a humidified atmosphere of 5% CO2 at 37 °C. For cell toxicity assessment, 3T3-L1 cells (1 × 10^5) were seeded in a 96-well plate for 24 h. After that, the cells were incubated for 6 days in DMEM containing various concentrations (0–1.0 mg/mL) of the synthetic PP1. Cell toxicity was measured by MTT according to the instructions indicated by the manufacturer. For cell differentiation, 3T3-L1 cells were seeded in 6-well plates at a density of 2 × 10^5 cells/well. Then, the medium was changed by DMEM with insulin (5 μg/mL; Sigma), 1 μM of dexamethasone (Sigma), and 0.5 mM of 3-isobutyl-1-methylxanthine. On day 3, the medium was replaced with DMEM containing insulin (5 μg/mL; Sigma) and 10% (v/v) FBS every 3 days. Various concentrations of the synthetic PP1 were attendant during the whole process of differentiation induction. Oil Red O staining of the intracellular lipids was carried out, as described previously. Moreover, intracellular triacylglycerol levels were measured by using an Assay Triglyceride Kit. Protein concentrations were determined with BCA Protein Assay.

In test [3] the test system is C/EBPα. Nature of the test: Western blot, C/EBPα expression. The settings on record: PP1 600 μg/mL, 3T3-L1 adipocytes. Type of test: cell-based. The protocol:
(§2) Cells were lysed in Radio Immunoprecipitation Assay (RIPA) buffer for 1 h and then centrifuged at 12,000 rpm for 25 min at 4 °C. The protein concentrations were determined by using a BCA protein assay kit. The supernatants were mixed with 4 × Sodium dodecyl sulfate (SDS) sample buffer and boiled for 10 min. The samples were run on a 4–15% SDS polyacrylamide gel and then transferred to a polyvinylidene difluoride membrane. The membrane was blocked with 5% (w/v) bovine serum albumin (BSA) for 30 min and then incubated with primary antibodies at 4 °C overnight. After washing with Tris-Buffered Saline and Tween 20 (TBST) 3 times, the membranes were washed with TBST and incubated with the secondary antibodies. Signals were detected with a scanner (Thermo Fisher Scientific, Inc.), and the fluorescence intensity was measured using Image software.

Test [4] concerns 3T3-L1 adipocytes. Nature of the test: Lipid accumulation / differentiation in 3T3-L1 cells (Oil Red O). Type of test: cell-based. The protocol:
as §1

Test [5] relates to AMPKα. Nature of the test: Western blot, AMPKα expression. In kind it is cell-based. The settings on record: PP1 600 μg/mL, 3T3-L1 adipocytes. Here is the method:
as §2
Background: Immunoblotting shows a protein as a band on a membrane.

In test [6] the test system is PPARγ. Put plainly: Western blot, PPARγ expression. Type of test: cell-based. The settings on record: PP1 600 μg/mL, 3T3-L1 adipocytes. The protocol: as §2
The subject of test [7] is SREBP-1c. Nature of the test: Western blot, SREBP-1c expression. The settings on record: PP1 600 μg/mL, 3T3-L1 adipocytes. Type of test: cell-based. Here is the method: as §2
[8] abbreviates: Table 2, Alcalase hydrolysate fractions and positive drugs, mean ± SD, test concentration not given.

Take `CCCCCCCCCCC[C@@H](C[C@@H]1OC(=O)[C@H]1CCCCCC)OC(=O)[C@H](CC(C)C)NC=O` [Orlistat]: in test [1] (setting [8]), the “Inhibition of Pancreatic Lipase” value stood at 88.85 ± 2.42%.
Consider `CCC(C)(C)C(=O)O[C@H]1C[C@@H](C)C=C2C=C[C@H](C)[C@H](CC[C@@H]3C[C@@H](O)CC(=O)O3)[C@H]21` [simvastatin, reference compound], for which the “decrease of intracellular triacylglycerol accumulation” value in test [2] (simvastatin 10 μM, positive drug) was found to be 24.1%. Moreover, the “Inhibition of Pancreatic Lipase” value in test [1] (setting [8]) amounted to 35.2 ± 1.9%.
As for “Leu-Leu-Val-Val-Try-Pro-Trp-Thr-Gln-Arg (LLVVYPWTQR) [PP1, synthetic decapeptide identified from A2 fraction of Alcalase hydrolysate]”, the C/EBPα protein level entry in test [3] is given as “decreased the levels of C/EBPα”. In addition, the differentiation inhibition result in test [4] (3T3-L1 pre-adipocytes) is recorded as “good differentiation inhibition activity”. Also, the “number of intracellular lipid droplets” value in test [4] (Oil Red O, PP1 present during differentiation, compared with model group) is given as “clearly decreased compared with that in the model group”. Moreover, the “decrease of intracellular triacylglycerol accumulation” value in test [2] (PP1 600 μg/mL) came to 27.9%. For the same molecule, in test [2] (PP1 600 μg/mL during differentiation, p < 0.05, mature adipocyte (model) 82.98 ± 11.2, pre-adipocytes 25.98 ± 1.6), the intracellular triacylglycerol level was found to be 59.82 ± 6.78 nmol/mg protein. Further, in test [5], the AMPKα protein expression result is listed as “significantly increased the expression of AMPKα”. In addition, the “Inhibition of Pancreatic Lipase” value in test [1] (synthetic peptide at 200 μg/mL) is 47.95%. In addition, in test [6], the PPARγ protein level entry is “decreased the levels of C/EBPα, SREBP-1c, and PPARγ”. The SREBP-1c protein level entry in test [7] is “decreased the levels of C/EBPα, SREBP-1c”.

The record behind these values is PMC6804107, “Separation and Lipid Inhibition Effects of a Novel Decapeptide from Chlorella pyenoidose” (Molecules, 2019).
